Experimental data taken from PubChem BioAssay (NCI).
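Protocol summary: plate cells (96-well), add compound at 5 concentrations, incubate 48 h, interpolate endpoints linearly. Definition used: TGI = concentration required for complete inhibition of growth.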

How the values were obtained:
Assay in all cases: NCI tumour cell line growth inhibition, 48 h
786-0 renal = system: 786-0 renal
A498 renal = system: A498 renal
A549 NSCLC = system: A549 NSCLC
ACHN renal = system: ACHN renal
CAKI-1 renal = system: CAKI-1 renal
CCRF-CEM leukemia = system: CCRF-CEM leukemia
COLO 205 colon = system: COLO 205 colon
DLD-1 colon = system: DLD-1 colon
DMS 114 small cell lung = system: DMS 114 small cell lung
DMS 273 small cell lung = system: DMS 273 small cell lung
EKVX NSCLC = system: EKVX NSCLC
HCT-116 colon = system: HCT-116 colon
HCT-15 colon = system: HCT-15 colon
HL-60(TB) leukemia = system: HL-60(TB) leukemia
HOP-62 NSCLC = system: HOP-62 NSCLC
HOP-92 NSCLC = system: HOP-92 NSCLC
HT29 colon = system: HT29 colon
IGROV1 ovarian = system: IGROV1 ovarian
K-562 leukemia = system: K-562 leukemia
KM20L2 colon = system: KM20L2 colon
LOX IMVI melanoma = system: LOX IMVI melanoma
LXFL 529 NSCLC = system: LXFL 529 NSCLC
M14 melanoma = system: M14 melanoma
M19-MEL melanoma = system: M19-MEL melanoma
MALME-3M melanoma = system: MALME-3M melanoma
MOLT-4 leukemia = system: MOLT-4 leukemia
NCI-H226 lung = system: NCI-H226 lung
NCI-H23 lung = system: NCI-H23 lung
NCI-H460 lung = system: NCI-H460 lung
NCI-H522 lung = system: NCI-H522 lung
OVCAR-3 ovarian = system: OVCAR-3 ovarian
OVCAR-4 ovarian = system: OVCAR-4 ovarian
OVCAR-5 ovarian = system: OVCAR-5 ovarian
OVCAR-8 ovarian = system: OVCAR-8 ovarian
SF-268 CNS = system: SF-268 CNS
SF-295 CNS = system: SF-295 CNS
SF-539 CNS = system: SF-539 CNS
SK-MEL-2 melanoma = system: SK-MEL-2 melanoma
SK-MEL-28 melanoma = system: SK-MEL-28 melanoma
SK-MEL-5 melanoma = system: SK-MEL-5 melanoma
SK-OV-3 ovarian = system: SK-OV-3 ovarian
SN12C renal = system: SN12C renal
SNB-19 CNS = system: SNB-19 CNS
SNB-75 CNS = system: SNB-75 CNS
SNB-78 CNS = system: SNB-78 CNS
SW-620 colon = system: SW-620 colon
TK-10 renal = system: TK-10 renal
U251 CNS = system: U251 CNS
UACC-257 melanoma = system: UACC-257 melanoma
UACC-62 melanoma = system: UACC-62 melanoma
UO-31 renal = system: UO-31 renal
XF 498 CNS = system: XF 498 CNS
BT-549 breast = system: BT-549 breast
DU-145 prostate = system: DU-145 prostate
HCC-2998 colon = system: HCC-2998 colon
HS 578T breast = system: HS 578T breast
KM12 colon = system: KM12 colon
MCF7 breast = system: MCF7 breast
MDA-MB-231 breast = system: MDA-MB-231 breast
MDA-MB-435 = system: MDA-MB-435
MDA-N = system: MDA-N
NCI/ADR-RES ovarian = system: NCI/ADR-RES ovarian
PC-3 prostate = system: PC-3 prostate
RPMI-8226 leukemia = system: RPMI-8226 leukemia
RXF 393 renal = system: RXF 393 renal
SR leukemia = system: SR leukemia
T-47D breast = system: T-47D breast

Measured: TGI

N#C/C(c1nc2ccccc2[nH]1)=c1\s/c(=C(/N)O)c(=N)n1-c1ccccc1
not listed: BT-549 breast | DU-145 prostate | HCC-2998 colon | HS 578T breast | KM12 colon | MCF7 breast | MDA-MB-231 breast | MDA-MB-435 | MDA-N | NCI/ADR-RES ovarian | PC-3 prostate | RPMI-8226 leukemia | RXF 393 renal | SR leukemia | T-47D breast
> 100 µM: all other assays above

O=C1NC(N2CCCC(CO)C2)=N/C1=C\c1ccccc1 (stereo not given)
not listed: A498 renal | DLD-1 colon | DMS 114 small cell lung | DMS 273 small cell lung | K-562 leukemia | KM20L2 colon | LXFL 529 NSCLC | M19-MEL melanoma | NCI-H460 lung | SNB-78 CNS | XF 498 CNS
> 100 µM: all other assays above

COC(=O)CCC1=NCC(C)(C)O1
not listed: DLD-1 colon | DMS 114 small cell lung | DMS 273 small cell lung | HL-60(TB) leukemia | HOP-92 NSCLC | K-562 leukemia | KM20L2 colon | LXFL 529 NSCLC | M19-MEL melanoma | SNB-78 CNS | XF 498 CNS
> 10 µM: all other assays above

COc1cc2cc(C(=O)N3CC(CCl)c4ccc([N+](C)(C)Cc5ccc([N+](=O)[O-])cc5)cc43)[nH]c2c(OC)c1OC (stereo not given)
15.3 µM: SF-295 CNS
3.52 µM: NCI-H23 lung
9.64 µM: SK-OV-3 ovarian
4.69 µM: OVCAR-8 ovarian | UACC-62 melanoma
2.95 µM: HCC-2998 colon
29.3 µM: EKVX NSCLC
47 µM: HS 578T breast
10.8 µM: DU-145 prostate
15.4 µM: NCI-H226 lung
11.1 µM: SNB-75 CNS
6.58 µM: HOP-92 NSCLC
7.16 µM: OVCAR-3 ovarian
31 µM: HCT-15 colon | SN12C renal
7.01 µM: CCRF-CEM leukemia
5.83 µM: HT29 colon
4.62 µM: RPMI-8226 leukemia
26.5 µM: SK-MEL-28 melanoma
24 µM: MDA-MB-435
6.54 µM: 786-0 renal
46.6 µM: MDA-MB-231 breast
3.31 µM: SK-MEL-5 melanoma
3.09 µM: RXF 393 renal
3.47 µM: NCI-H522 lung
4.17 µM: NCI/ADR-RES ovarian
6.18 µM: SW-620 colon
56.7 µM: SF-268 CNS
5.46 µM: KM12 colon
14.2 µM: COLO 205 colon
60 µM: SNB-19 CNS
> 100 µM: A549 NSCLC | HOP-62 NSCLC | MCF7 breast | OVCAR-5 ovarian
3.5 µM: A498 renal
5.55 µM: HL-60(TB) leukemia
66.2 µM: T-47D breast
5.64 µM: CAKI-1 renal | SF-539 CNS
13.6 µM: OVCAR-4 ovarian
5.61 µM: K-562 leukemia
35.6 µM: BT-549 breast
40.5 µM: M14 melanoma
5.26 µM: SK-MEL-2 melanoma
6.44 µM: MOLT-4 leukemia
2.31 µM: SR leukemia
16.3 µM: PC-3 prostate
4 µM: NCI-H460 lung
7.42 µM: MALME-3M melanoma
7.36 µM: U251 CNS
7.12 µM: ACHN renal
16.5 µM: MDA-N

N#Cc1c(C#N)c(-c2ccccc2)n(Cc2ccccc2)c1N
63.4 µM: SF-539 CNS
75.4 µM: OVCAR-8 ovarian
64.7 µM: SNB-75 CNS
86.4 µM: MDA-MB-231 breast
not listed: DLD-1 colon | DMS 114 small cell lung | DMS 273 small cell lung | HOP-92 NSCLC | KM20L2 colon | LXFL 529 NSCLC | M19-MEL melanoma | NCI-H460 lung | SK-MEL-28 melanoma | SNB-78 CNS | XF 498 CNS
> 100 µM: all other assays above

CC[C@H](C)C1=C(OC(C)=O)[N@+]2([O-])Oc3ccc(-c4c(O)c(O)c(-c5ccc(OC(C)=O)cc5)c(OC(C)=O)c4OC(C)=O)cc3O[C@]2([C@@H](C)CC)C(=O)N1O
46.9 µM: UACC-62 melanoma
22.2 µM: NCI-H522 lung
39.7 µM: SR leukemia
37.5 µM: OVCAR-3 ovarian
26.9 µM: OVCAR-4 ovarian
23 µM: HOP-92 NSCLC
37.7 µM: T-47D breast
43.2 µM: 786-0 renal
25.5 µM: RPMI-8226 leukemia
19.5 µM: HCT-116 colon
44.7 µM: IGROV1 ovarian
34.5 µM: SW-620 colon
29.2 µM: K-562 leukemia
46.6 µM: MALME-3M melanoma
not listed: CCRF-CEM leukemia | DLD-1 colon | DMS 114 small cell lung | DMS 273 small cell lung | KM20L2 colon | LXFL 529 NSCLC | M19-MEL melanoma | NCI-H226 lung | SNB-75 CNS | SNB-78 CNS | XF 498 CNS | HCC-2998 colon
> 50 µM: all other assays above

COc1ccc(C(=O)O[C@H]2CC[C@@]3(C)[C@@H]4CC[C@H]5[C@]6(O)C[C@H](O)[C@@]7(O)[C@@H](CN8C[C@@H](C)CC[C@H]8[C@@]7(C)O)[C@]6(O)C[C@@]53OC24O)cc1OC
not listed: CCRF-CEM leukemia | DLD-1 colon | DMS 114 small cell lung | DMS 273 small cell lung | HL-60(TB) leukemia | KM20L2 colon | LXFL 529 NSCLC | M19-MEL melanoma | SNB-78 CNS | XF 498 CNS
> 100 µM: all other assays above
